We go through one molecule from US6338800B1, “Methods and compositions using lanthanum for removing phosphates from water” (Natural Chemistry, Inc., priority 2000, dated 2002).

The text on the test:
A test tank with a capacity of approximately 1100 liters was fitted with a HAYWARD® sand filter. The filter was approximately 0.09 square meters and contained approximately 18 kg of coarse sand. An identical tank was fitted with a HAYWARD ® cartridge filter, as is typically used with swimming pools. […] Water is then drawn through the filters using a pump. Each unit was fitted with necessary plumbing to permit test samples of reactant to be added upstream of the filter, to simulate adding the reactant to the skimmer in a full-sized pool. In this way, the reactant could be drawn through the plumbing and into or onto the filter. In this test orthophosphate, in the form of Na2HPO4, was used to simulate the increased phosphate level present in the water.
This suspension was added upstream of the filter, thus it was drawn toward and into the filter.

With `O=S(=O)([O-])[O-].O=S(=O)([O-])[O-].O=S(=O)([O-])[O-].[La+3].[La+3]` [La2(SO4)3, lanthanum sulfate], where the note is “commercial grade (approximately 99.5% purity), 0.8 g Na2HPO4 added, otherwise as Example 1”, the “ratio of PO4 recovered to La added” value stood at 0.35. Also, the PO4 removed (reagent grade (99.9% pure), 3.5 g in 50 ml tap water added upstream of filter, 1135 L, approx. 800 ppb phosphate, after 2 hours pumping at approx. 75 L/min) worked out at 0.65 g. Besides, the “ratio of PO4 to La observed in the experiment” value (reagent grade (99.9% pure), 3.5 g, after 2 hours) was determined as 0.38.
